Reference: PMC4447944 (The Journal of Biological Chemistry, 2015)
Like-named read-outs stand apart in the source and are kept apart here.

Columns and labels:
hTRKB = target: T1, hTRKB (Homo sapiens, UniProt Q16620); assay: KINOMEscan; format: binding
T1 construct: purchased DiscoverX

hQSK = target: T2, hQSK (Homo sapiens, UniProt Q9Y2K2); assay: KINOMEscan; format: binding
T2 construct: purchased DiscoverX (KINOMEscan platform)

hTTK = target: T3, hTTK (Homo sapiens, UniProt P33981); assay: KINOMEscan; format: binding
T3 construct: purchased DiscoverX

hFGFR2 = target: T4, hFGFR2 (Homo sapiens, UniProt P21802); assay: KINOMEscan; format: binding
T4 construct: purchased DiscoverX

hVDR = target: T5, hVDR (Homo sapiens, UniProt P11473); assay: Nuclear hormone receptor assay (Eurofins-CEREP); details: read-out: Relative IC50
T5 construct: Eurofins-CEREP
T5 sequence (P11473 whole entry): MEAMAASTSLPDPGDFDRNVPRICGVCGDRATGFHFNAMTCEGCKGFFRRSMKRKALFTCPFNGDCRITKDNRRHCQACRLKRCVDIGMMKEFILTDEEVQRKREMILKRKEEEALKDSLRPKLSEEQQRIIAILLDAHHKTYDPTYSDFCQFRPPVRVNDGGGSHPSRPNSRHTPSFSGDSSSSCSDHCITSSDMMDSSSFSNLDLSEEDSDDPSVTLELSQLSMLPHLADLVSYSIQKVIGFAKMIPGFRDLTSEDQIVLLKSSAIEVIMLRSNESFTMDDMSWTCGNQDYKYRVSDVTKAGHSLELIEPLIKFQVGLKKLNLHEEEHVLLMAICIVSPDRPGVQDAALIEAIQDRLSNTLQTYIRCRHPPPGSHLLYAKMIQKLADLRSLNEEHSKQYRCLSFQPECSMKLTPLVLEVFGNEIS

hEGFR(G719C) = target: T6, hEGFR(G719C) (Homo sapiens, UniProt P00533, G719C); assay: KINOMEscan; format: binding
T6 construct: purchased DiscoverX

hDRAK2 = target: T7, hDRAK2 (Homo sapiens, UniProt O94768); assay: KINOMEscan; format: binding
T7 construct: purchased DiscoverX

hACVR2A = target: T8, hACVR2A (Homo sapiens, UniProt P27037); assay: KINOMEscan; format: binding
T8 construct: purchased DiscoverX (KINOMEscan platform)

hROCK2 = target: T9, hROCK2 (Homo sapiens, UniProt O75116); assay: KINOMEscan; format: binding
T9 construct: purchased DiscoverX (KINOMEscan platform)

h5HT2B = h5HT2B (Homo sapiens, UniProt P41595); assay: Calcium Mobilization Antagonist (Eurofins-CEREP); details: read-out: % Effect, Inhibition
hPPARγ = target: T10, hPPARγ (Homo sapiens, UniProt P37231); assay: Nuclear hormone receptor assay (Eurofins-CEREP); details: read-out: Relative IC50
T10 construct: Eurofins-CEREP

hBMX = target: T11, hBMX (Homo sapiens, UniProt P51813); assay: KINOMEscan; format: binding
T11 construct: purchased DiscoverX

hTYRO3 = target: T12, hTYRO3 (Homo sapiens, UniProt Q06418); assay: KINOMEscan; format: binding
T12 construct: purchased DiscoverX

hEPHB4 = target: T13, hEPHB4 (Homo sapiens, UniProt P54760); assay: KINOMEscan; format: binding
T13 construct: purchased DiscoverX

hSgK110 = target: T14, hSgK110 (Homo sapiens, UniProt P0C264); assay: KINOMEscan; format: binding
T14 construct: purchased DiscoverX (KINOMEscan platform)

hIKK-alpha = target: T15, hIKK-alpha (Homo sapiens, UniProt O15111); assay: KINOMEscan; format: binding
T15 construct: purchased DiscoverX (KINOMEscan panel)
T15 sequence (O15111 whole entry): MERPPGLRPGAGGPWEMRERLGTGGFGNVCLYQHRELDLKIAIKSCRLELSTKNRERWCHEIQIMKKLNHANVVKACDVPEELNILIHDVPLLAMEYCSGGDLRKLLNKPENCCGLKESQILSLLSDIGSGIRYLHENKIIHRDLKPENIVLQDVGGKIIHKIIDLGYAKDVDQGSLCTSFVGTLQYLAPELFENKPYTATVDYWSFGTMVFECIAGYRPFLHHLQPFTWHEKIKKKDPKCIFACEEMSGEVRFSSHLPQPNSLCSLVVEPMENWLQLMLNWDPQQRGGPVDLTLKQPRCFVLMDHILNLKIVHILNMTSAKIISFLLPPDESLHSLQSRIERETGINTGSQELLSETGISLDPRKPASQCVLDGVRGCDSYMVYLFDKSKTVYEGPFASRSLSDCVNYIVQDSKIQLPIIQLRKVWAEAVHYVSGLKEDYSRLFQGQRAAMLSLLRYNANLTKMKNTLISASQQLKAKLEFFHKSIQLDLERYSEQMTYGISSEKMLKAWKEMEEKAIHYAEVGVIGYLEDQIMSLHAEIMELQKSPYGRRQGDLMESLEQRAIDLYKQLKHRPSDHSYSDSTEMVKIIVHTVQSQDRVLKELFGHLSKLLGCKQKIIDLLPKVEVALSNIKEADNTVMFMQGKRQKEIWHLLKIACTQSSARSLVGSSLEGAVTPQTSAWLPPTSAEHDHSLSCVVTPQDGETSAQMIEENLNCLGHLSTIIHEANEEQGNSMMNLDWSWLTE

hOPRm1 = hOPRm1 (Homo sapiens, UniProt P35372); assay: cAMP Potentiation (Eurofins-CEREP); details: @ 1 μM
hDRAK1 = target: T16, hDRAK1 (Homo sapiens, UniProt Q9UEE5); assay: KINOMEscan; format: binding
T16 construct: purchased DiscoverX

hROS1 = target: T17, hROS1 (Homo sapiens, UniProt P08922); assay: KINOMEscan; format: binding
T17 construct: purchased DiscoverX (KINOMEscan platform)
T17 sequence (P08922 28-2347): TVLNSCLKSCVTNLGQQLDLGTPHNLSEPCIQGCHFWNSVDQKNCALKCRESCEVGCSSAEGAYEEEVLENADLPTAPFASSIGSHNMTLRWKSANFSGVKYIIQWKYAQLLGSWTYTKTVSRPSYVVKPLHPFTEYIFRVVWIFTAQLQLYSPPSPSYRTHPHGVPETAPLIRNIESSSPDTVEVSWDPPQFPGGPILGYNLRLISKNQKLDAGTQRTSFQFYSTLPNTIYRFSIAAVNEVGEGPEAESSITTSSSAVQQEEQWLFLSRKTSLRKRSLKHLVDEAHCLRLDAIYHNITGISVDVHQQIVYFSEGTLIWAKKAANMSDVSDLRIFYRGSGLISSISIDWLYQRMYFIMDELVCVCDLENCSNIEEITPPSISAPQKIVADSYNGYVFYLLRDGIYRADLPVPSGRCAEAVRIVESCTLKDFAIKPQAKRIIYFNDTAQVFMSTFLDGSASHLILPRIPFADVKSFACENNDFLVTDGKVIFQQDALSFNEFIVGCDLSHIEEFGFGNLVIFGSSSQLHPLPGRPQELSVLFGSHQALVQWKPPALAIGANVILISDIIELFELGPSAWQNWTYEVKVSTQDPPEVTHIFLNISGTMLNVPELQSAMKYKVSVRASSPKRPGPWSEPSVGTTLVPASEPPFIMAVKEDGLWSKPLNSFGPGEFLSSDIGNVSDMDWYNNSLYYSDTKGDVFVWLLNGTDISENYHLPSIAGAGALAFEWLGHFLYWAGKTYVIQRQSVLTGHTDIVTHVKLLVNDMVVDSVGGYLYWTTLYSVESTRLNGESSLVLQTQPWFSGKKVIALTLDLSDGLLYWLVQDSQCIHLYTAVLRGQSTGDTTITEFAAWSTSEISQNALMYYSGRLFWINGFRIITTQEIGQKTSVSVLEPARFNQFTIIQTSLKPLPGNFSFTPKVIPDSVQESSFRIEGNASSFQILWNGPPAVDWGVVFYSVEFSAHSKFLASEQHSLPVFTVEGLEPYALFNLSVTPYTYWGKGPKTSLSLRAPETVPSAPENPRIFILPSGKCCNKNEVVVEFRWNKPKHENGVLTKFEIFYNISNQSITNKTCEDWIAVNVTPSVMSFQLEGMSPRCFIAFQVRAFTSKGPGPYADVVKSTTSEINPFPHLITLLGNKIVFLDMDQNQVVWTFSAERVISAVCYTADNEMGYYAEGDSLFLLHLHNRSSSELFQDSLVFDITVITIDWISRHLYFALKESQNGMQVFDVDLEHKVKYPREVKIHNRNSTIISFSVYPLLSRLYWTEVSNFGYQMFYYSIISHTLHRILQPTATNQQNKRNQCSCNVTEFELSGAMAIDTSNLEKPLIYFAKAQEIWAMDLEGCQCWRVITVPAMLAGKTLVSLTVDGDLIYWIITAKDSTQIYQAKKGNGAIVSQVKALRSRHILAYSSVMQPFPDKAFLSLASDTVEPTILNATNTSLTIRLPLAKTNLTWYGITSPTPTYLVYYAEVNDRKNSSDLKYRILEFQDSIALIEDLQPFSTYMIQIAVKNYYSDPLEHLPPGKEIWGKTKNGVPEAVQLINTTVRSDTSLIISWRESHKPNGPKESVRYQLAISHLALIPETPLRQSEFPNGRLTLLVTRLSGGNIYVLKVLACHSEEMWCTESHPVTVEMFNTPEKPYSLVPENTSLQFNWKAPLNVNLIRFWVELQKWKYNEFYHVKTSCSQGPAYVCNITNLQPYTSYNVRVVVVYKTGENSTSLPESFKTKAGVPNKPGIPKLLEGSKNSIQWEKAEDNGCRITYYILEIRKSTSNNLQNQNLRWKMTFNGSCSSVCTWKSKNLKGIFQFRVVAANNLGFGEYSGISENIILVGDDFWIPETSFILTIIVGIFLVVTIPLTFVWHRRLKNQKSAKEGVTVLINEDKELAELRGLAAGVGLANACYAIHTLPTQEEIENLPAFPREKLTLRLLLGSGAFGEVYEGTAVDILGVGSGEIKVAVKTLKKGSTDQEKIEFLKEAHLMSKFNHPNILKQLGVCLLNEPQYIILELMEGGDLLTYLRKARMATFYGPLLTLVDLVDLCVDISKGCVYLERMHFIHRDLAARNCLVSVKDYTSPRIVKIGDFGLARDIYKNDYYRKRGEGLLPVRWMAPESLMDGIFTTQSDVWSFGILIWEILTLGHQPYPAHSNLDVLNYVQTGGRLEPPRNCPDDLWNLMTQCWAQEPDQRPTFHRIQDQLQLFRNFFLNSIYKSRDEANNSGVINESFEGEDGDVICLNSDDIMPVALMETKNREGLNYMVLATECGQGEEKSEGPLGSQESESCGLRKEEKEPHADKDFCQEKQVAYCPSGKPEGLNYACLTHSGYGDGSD

hADCK4 = target: T18, hADCK4 (Homo sapiens, UniProt Q96D53); assay: KINOMEscan; format: binding
T18 construct: purchased DiscoverX
T18 sequence (Q96D53 whole entry): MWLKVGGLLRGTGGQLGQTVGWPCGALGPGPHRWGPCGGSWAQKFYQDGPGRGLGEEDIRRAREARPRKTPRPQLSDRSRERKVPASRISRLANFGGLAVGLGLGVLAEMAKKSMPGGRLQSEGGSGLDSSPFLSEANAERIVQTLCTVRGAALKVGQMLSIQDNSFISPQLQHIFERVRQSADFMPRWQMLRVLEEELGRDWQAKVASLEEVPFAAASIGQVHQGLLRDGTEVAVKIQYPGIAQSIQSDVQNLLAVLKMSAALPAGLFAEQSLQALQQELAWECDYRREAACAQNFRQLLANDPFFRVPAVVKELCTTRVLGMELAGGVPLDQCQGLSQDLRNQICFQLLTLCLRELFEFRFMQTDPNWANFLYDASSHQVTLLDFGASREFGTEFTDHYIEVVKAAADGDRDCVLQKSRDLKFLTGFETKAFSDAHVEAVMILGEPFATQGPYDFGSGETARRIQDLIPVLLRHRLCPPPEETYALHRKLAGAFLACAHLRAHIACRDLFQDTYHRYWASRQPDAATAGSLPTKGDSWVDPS

hERBB3 = target: T19, hERBB3 (Homo sapiens, UniProt P21860); assay: KINOMEscan; format: binding
T19 construct: purchased DiscoverX

hZAK = target: T20, hZAK (Homo sapiens, UniProt Q9NYL2); assay: KINOMEscan; format: binding
T20 construct: purchased DiscoverX

hASK2 = target: T21, hASK2 (Homo sapiens, UniProt O95382); assay: KINOMEscan; format: binding
T21 construct: purchased DiscoverX

hTGFBR2 = target: T22, hTGFBR2 (Homo sapiens, UniProt P37173); assay: KINOMEscan; format: binding
T22 construct: purchased DiscoverX

hWEE2 = target: T23, hWEE2 (Homo sapiens, UniProt P0C1S8); assay: KINOMEscan; format: binding
T23 construct: purchased DiscoverX

hHCK = target: T24, hHCK (Homo sapiens, UniProt P08631); assay: KINOMEscan; format: binding
T24 construct: purchased DiscoverX

hTIE2 = target: T25, hTIE2 (Homo sapiens, UniProt Q02763); assay: KINOMEscan; format: binding
T25 construct: purchased DiscoverX

hLYN = target: T26, hLYN (Homo sapiens, UniProt P07948); assay: KINOMEscan; format: binding
T26 construct: purchased DiscoverX (KINOMEscan platform)

hFLT4 = target: T27, hFLT4 (Homo sapiens, UniProt P35916); assay: KINOMEscan; format: binding
T27 construct: purchased DiscoverX

hDDR1 = target: T28, hDDR1 (Homo sapiens, UniProt Q08345); assay: KINOMEscan; format: binding
T28 construct: purchased DiscoverX (KINOMEscan platform)

hMAP4K5 = target: T29, hMAP4K5 (Homo sapiens, UniProt Q9Y4K4); assay: KINOMEscan; format: binding
T29 construct: purchased DiscoverX

hRIPK5 = target: T30, hRIPK5 (Homo sapiens, UniProt Q6XUX3); assay: KINOMEscan; format: binding
T30 construct: purchased DiscoverX (KINOMEscan platform)

hFLT3(K663Q) = target: T31, hFLT3(K663Q) (Homo sapiens, UniProt P36888, K663Q); assay: KINOMEscan; format: binding
T31 construct: purchased DiscoverX

hEPHA6 = target: T32, hEPHA6 (Homo sapiens, UniProt Q9UF33); assay: KINOMEscan; format: binding
T32 construct: purchased DiscoverX

hMAP3K2 = target: T33, hMAP3K2 (Homo sapiens, UniProt Q9Y2U5); assay: KINOMEscan; format: binding
T33 construct: purchased DiscoverX (KINOMEscan platform)

hTAOK3 = target: T34, hTAOK3 (Homo sapiens, UniProt Q9H2K8); assay: KINOMEscan; format: binding
T34 construct: purchased DiscoverX
T34 sequence (Q9H2K8 whole entry): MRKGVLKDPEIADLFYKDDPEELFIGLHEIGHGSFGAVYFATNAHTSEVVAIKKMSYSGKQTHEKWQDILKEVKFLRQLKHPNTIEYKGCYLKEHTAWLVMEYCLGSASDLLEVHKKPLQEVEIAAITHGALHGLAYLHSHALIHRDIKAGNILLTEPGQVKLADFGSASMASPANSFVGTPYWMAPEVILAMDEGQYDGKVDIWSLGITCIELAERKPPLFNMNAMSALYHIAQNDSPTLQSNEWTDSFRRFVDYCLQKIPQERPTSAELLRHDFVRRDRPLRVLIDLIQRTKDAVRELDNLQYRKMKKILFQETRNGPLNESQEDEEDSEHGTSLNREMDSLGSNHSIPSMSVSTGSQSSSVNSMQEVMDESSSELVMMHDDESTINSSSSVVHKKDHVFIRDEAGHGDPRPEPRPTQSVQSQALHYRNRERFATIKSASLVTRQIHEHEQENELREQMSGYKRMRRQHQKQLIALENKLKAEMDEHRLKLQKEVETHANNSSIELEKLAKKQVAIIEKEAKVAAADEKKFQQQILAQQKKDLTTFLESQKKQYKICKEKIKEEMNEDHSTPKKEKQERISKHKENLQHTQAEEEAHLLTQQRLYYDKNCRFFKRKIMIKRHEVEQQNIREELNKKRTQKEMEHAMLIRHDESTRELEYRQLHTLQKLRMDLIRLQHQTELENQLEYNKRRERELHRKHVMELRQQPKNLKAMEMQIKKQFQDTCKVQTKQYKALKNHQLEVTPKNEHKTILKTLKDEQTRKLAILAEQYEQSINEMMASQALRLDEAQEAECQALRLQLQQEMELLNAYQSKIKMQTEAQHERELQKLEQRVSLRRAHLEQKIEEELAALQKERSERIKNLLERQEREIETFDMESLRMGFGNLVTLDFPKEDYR

hCSNK1E = target: T35, hCSNK1E (Homo sapiens, UniProt P49674); assay: KINOMEscan; format: binding
T35 construct: purchased DiscoverX (KINOMEscan platform)

hDLK = target: T36, hDLK (Homo sapiens, UniProt Q12852); assay: KINOMEscan; format: binding
T36 construct: purchased DiscoverX (KINOMEscan platform)

hEGFR(G719S) = target: T37, hEGFR(G719S) (Homo sapiens, UniProt P00533, G719S); assay: KINOMEscan; format: binding
T37 construct: purchased DiscoverX

[1] = tested on: ESCC, HCC, and breast cancer cell lines; assay: Proliferation assay (CellTiter-Glo); format: cell-based; details: Homo sapiens, range over cell lines of all three panels
Method: Cell viability was measured using CellTiter-Glo^TM (Promega) according to the manufacturer's instructions.

hKIT(L576P) = target: T38, hKIT(L576P) (Homo sapiens, UniProt P10721, L576P); assay: KINOMEscan; format: binding
T38 construct: purchased DiscoverX (KINOMEscan panel)

## Cc1cn(CCN2CCN(c3ccccc3-c3cc(C#N)cc(C(=O)NCCCN4CCCC4)c3)CC2)c2ccccc12 [LLY-507, 3-cyano-5-{2-[4-[2-(3-methylindol-1-yl)ethyl]piperazin-1-yl]-phenyl}-N-[(3-pyrrolidin-1-yl)propyl]benzamide]
hTRKB
  IC50: > 20 µM
hQSK
  IC50: > 20 µM
hTTK
  IC50: > 20 µM
hFGFR2
  IC50: > 20 µM
hVDR
  IC50: > 10 µM
hEGFR(G719C)
  IC50: > 20 µM
hDRAK2
  IC50: > 20 µM
hACVR2A
  IC50: > 20 µM
hROCK2
  IC50: > 20 µM
h5HT2B
  inhibition at 10 µM: 6.8%
hPPARγ
  IC50: > 10 µM
hBMX
  IC50: > 20 µM
hTYRO3
  IC50: > 20 µM
hEPHB4
  IC50: > 20 µM
hSgK110
  IC50: > 20 µM
hIKK-alpha
  IC50: > 20 µM
hOPRm1
  % Effect, Potentiation: 9.6%
hDRAK1
  IC50: > 20 µM
hROS1
  IC50: > 20 µM
hADCK4
  IC50: > 20 µM
hERBB3
  IC50: > 20 µM
hZAK
  IC50: > 20 µM
hASK2
  IC50: > 20 µM
hTGFBR2
  IC50: > 20 µM
hWEE2
  IC50: > 20 µM
hHCK
  IC50: > 20 µM
hTIE2
  IC50: > 20 µM
hLYN
  IC50: > 20 µM
hFLT4
  IC50: > 20 µM
hDDR1
  IC50: > 20 µM
hMAP4K5
  IC50: > 20 µM
hRIPK5
  IC50: > 20 µM
hFLT3(K663Q)
  IC50: > 20 µM
hEPHA6
  IC50: > 20 µM
hMAP3K2
  IC50: > 20 µM
hTAOK3
  IC50: > 20 µM
hCSNK1E
  IC50: > 20 µM
hDLK
  IC50: > 20 µM
hEGFR(G719S)
  IC50: > 20 µM
[1]; 96 h, 3 to 4-day treatment, read-out: IC50, proliferation, standard assay
  IC50: 1.5 to 6 µM
[1]; 168 h, 7-day treatment, read-out: IC50, proliferation, longer term assay
  IC50: 0.3 to 3.2 µM
hKIT(L576P)
  IC50: > 20 µM
